Earlier results, collected in patent US20030103955A1 (priority 2000, published 2003).

Columns and labels:
[1] = octanol/buffer phosphate, ph=7.4
[2] = test system: arthritis induced by adjuvant; details: compared with aspirin
[3] = test system: cycloxygenase; details: with reduction of production of tissue prostaglandines PGF2 and PGE2

O=C(O)Cc1ccccc1Nc1c(Cl)cccc1Cl [Diclofenac]
partition coefficient [1]: 13.0 | anti-inflammatory effect [2]: higher than that of aspirin | activity of cycloxygenase [3]: inhibits the activity of cycloxygenase
